Patent US12303492B2, “Compounds for treating TNBC” (Purdue Pharma L.P., priority 2017, dated 2025)

System: HCC1143 p13 spheroid (TNBC, BL1 subtype, BRCA-1 wt)
Test: TNBC spheroid model, residual cell viability by standard ATP assay
Type: cell-based
Conditions: for mean cell viability: mean of six repeats
Experimental: The activity of EDO-S101 alone and in combination was evaluated in triple negative breast cancer (TNBC) cells lines using a spheroid model.
Heterotypic tumour spheroids were prepared from the individual primary breast cancer tissue. The tumour samples were mechanically and enzymatically digested using an enzyme cocktail (Roche, Penzberg Germany), cell viability determined using the trypan-blue exclusion test, and spheroids seeded at a cell density of 50,000 using a modified liquid overlay method. After 48 h in cell culture under standard conditions, successful spheroid formation was documented photographically before starting treatment.
The spheroids were treated with EDO-S101 (5 μM, 10 μM) alone and in combination with carboplatin and/or the PARP inhibitor olaparib (Table 2) for different periods of time (48, 72 h). Solvent controls and an untreated (medium) control was used under the same culture conditions. Treatment efficacy of all drugs was analysed with a standard ATP assay.
The results are the mean of six repeats per treatment based on the results of the ATP assay.
HCC1143 cells are from the BL1 triple negative breast cancer subtype.

Cn1c(CCCCCCC(=O)NO)nc2cc(N(CCCl)CCCl)ccc21 [EDO-S101, 7-(5-(bis(2-chloroethyl)amino)-1-methyl-1H-benzo[d]imidazol-2-yl)-N-hydroxyheptanamide]
mean cell viability (HCC1143 p13 spheroids, T48 h, EDO S101 5 μM alone or with carboplatin 40.84 μg/ml and/or olaparib 6.6 μg/ml): 85.75 % solvent control | mean cell viability (HCC1143 p13 spheroids, T48 h, EDO S101 10 μM alone or with carboplatin 40.84 μg/ml and/or olaparib 6.6 μg/ml): 57.43 % solvent control | mean cell viability (HCC1143 spheroids, T72 h, EDO S101 5 μM alone or with carboplatin 40.84 μg/ml and/or olaparib 6.6 μg/ml): 79.99 % solvent control | mean cell viability (HCC1143 spheroids, T72 h, EDO S101 10 μM alone or with carboplatin 40.84 μg/ml and/or olaparib 6.6 μg/ml): 77.09 % solvent control | residual cell viability (HCC1143 spheroids, after 48 h, EDO-S101 5 μm (alone or in combination)): 86% | residual cell viability (HCC1143 spheroids, after 48 h, EDO-S101 10 μm): 57%

N.N.O=C([O-])C1(C(=O)[O-])CCC1.[Pt+2] [Carboplatin, reference compound]
mean cell viability (HCC1143 p13 spheroids, T48 h, control agents: carboplatin 40.84 μg/ml, paclitaxel 1.53 μg/ml, olaparib 6.6 μg/ml): 118.28 % solvent control | mean cell viability (HCC1143 spheroids, T72 h, control agents: carboplatin 40.84 μg/ml, paclitaxel 1.53 μg/ml, olaparib 6.6 μg/ml): 105.88 % solvent control

O=C(c1cc(Cc2n[nH]c(=O)c3ccccc23)ccc1F)N1CCN(C(=O)C2CC2)CC1 [Olaparib, reference compound]
residual cell viability (human, 72 h): 62%
